Data from US12257334B2, “Oral care compositions” (Colgate-Palmolive Company, priority 2015, dated 2025).

Legend:
[1] = aqueous solution, no net charge; cited from earlier work
[2] = system: mixed species inoculum culture containing: Lactobacillus casei, Streptococcus oralis, Actinomyces viscosus, Veillonella parvula & Fusobacterium nucleatum; assay type: cell-based
Procedure: Bacterial kill: A 20-second short interval kill test (SIKT) measures the efficacy of various treatment solutions in killing oral pathogens. […] A mixed species inoculum culture containing: Lactobacillus casei, Streptococcus oralis, Actinomyces viscosus, Veillonella parvula & Fusobacterium nucleatum at an optical density of 0.5 @ 610nm is centrifuged. The supernatant is then aspirated off and the remaining pellicle re-suspended in sterile phosphate buffered saline (PBS). 100 ul of this solution is then treated with 100 ul of test sample for 30 or 60 seconds. Immediately following treatment, the exposure is neutralized by adding 1.3 ml of sterile D/E neutralizing broth. The neutralizing broth is then rinsed off by centrifugation and re-suspension in PBS. 50 ul samples are then transferred in triplicate to a 96-well microplate. The fluorescent dyes are then prepared per the manufacturer's directions and added to the samples. The fluorescence is then measured in a fluorescent plate reader. Data from this assay are presented as a percentage of bacterial remaining viable relative to a control sample treated with PBS.

[3] = Stabilization with multi-charged species: redissolving the DV-CHX precipitate; assay type: physicochemical; conditions: with significant stirring time
Source text: Stabilization with Multi-Charged Species: The addition of DV to a solution of CHX causes an immediate precipitation. However, the addition of low levels of surfactants or multi-charged compounds brings both DV and CHX back into solution. The table below lists multiple compounds that help to redissolve the DV-CHX, and what we have found as their lowest effective levels. These solutions are stable from pH 4.9-7. Addition of citric acid to lower the pH to <4.9 causes significant precipitation.

**Q.** With `NCCCC[C@H](N)C(=O)O` [lysine] as the molecule, how does the isoelectric point [1] read?
**A.** Its isoelectric point is 9.7 pH.

**Q.** Which “% viability” value [2] does the source give for `CCO` [Dead, ethanol] here?
**A.** The value was 36.3%.

**Q.** What does the source list for `C[N+](C)(C)CC(=O)O` [Betaine]?
**A.** Lowest effective level ([3]; added to solution of 0.12% CHX and 1.025 DV (w/w by actives)): 0.3% for 0.12% CHX; Lowest effective level ([3]; added to solution of 0.2% CHX and 1.025 DV (w/w by actives)): 0.3% for 0.2% CHX
